This is an account of results in US7309484B2, “Compositions and methods for screening antibacterial compounds” (priority 2003, dated 2007).

Data set [1] has as its system liaI expression (liaI::pMUTIN lacZ fusion, strain BFS2470; also liaH::pMUTIN, BFS2469). As to the kind of experiment: Disk-diffusion assay, blue ring on X-Gal plates. As to Disk-diffusion assay: key: −: no induction; +: induction of yvql expression. Format: cell-based, Bacillus subtilis. Conditions: for disk-diffusion assay: qualitative screen of β-Galactosidase activity, blue ring at edge of zone of inhibition, LB plates with X-Gal, strain BFS2470; for induction of liaI / liaH expression, in words: strains BFS2469 and BFS2470. The source says: The pMUTIN-insertion results in a disruption of the targeted gene and generates a transcriptional fusion to lacZ thereby allowing detection of both antibiotic sensitivity (as defined by the zone of inhibition around the disk) and inducibility (by the formation of a blue ring at the edge of the zone of inhibition) (Cao et al., 2002, Mol Microbiol. 45: 1267-1276, the entire teaching of which is incorporated herein). The disruption of liaI and liaH had no effect on the sensitivity of the mutants to any of the antibiotics tested. […] Equivalent levels of induction were also observed with the PliaI-74-cat-lacZ fragment (in HB0950), albeit with lower fold-changes (See, Table 2). While the mode of action is different for these antibiotics, all four interfere with the lipid II cycle, essential for the biosynthesis of cell envelope polymers (Lazar et al., 2002, Curr. Opin. Chem. Biol. 6: 786-93).
PliaI induction assays: Screening for liaI induction was done by disk diffusion assay essentially as described (Cai, S. J., and M. Inouye, 2002, J Biol Chem 277:24155-61). B. subtilis strains were inoculated from a fresh overnight LB agar plate and grown to mid-log phase (OD600 ˜0.45) at 37 YC with shaking. 20 μl of the culture was mixed with 3 ml of 0.7% soft LB agar (containing 40 μg of X-Gal per plate) and poured onto the bottom agar. After cooling and drying of the plates (20 min at 37 YC), filter paper disks (6 mm diameter) carrying 5 μl of stock solution (antibiotics normally 100 mg/ml; lysozyme 10 mg/ml; tunicamycin, surfactants, uncouplers 5 mg/ml each; inhibitors of protein biosynthesis as given in the media and growth conditions section) were placed on top of the agar. The plates were incubated at 37 YC overnight. After 12-24 h incubation, the plates were scored for the appearance of a blue ring at or near the edge of the zone of growth inhibition produced by the diffusion of the antibiotics from the filter disk.

In data set [2] the test system is B. subtilis strain BFS2470. Nature of the data set: Concentration-dependent induction/killing experiments. The settings on record: for lacZ-expression at higher concentration: FIG. 7a; for lacZ-expression at higher concentration / effect on cell growth / optical density: in words; for effect on cell growth / optical density: high concentrations, FIG. 7b; for antibiotic concentration at maximum induction of liaI: β-galactosidase assay after 30 min, 0.01 to 100 μg/ml tested. Format: cell-based, Bacillus subtilis. The protocol: Concentration-dependent induction/killing experiments were performed for bacitracin, nisin, ramoplanin and vancomycin as shown in FIG. 7. In all four cases the induction of liaI occurred in a concentration-dependent manner (FIG. 7a), reaching a maximum at an antibiotic concentration of about 10 μg/ml (1 μg/mL for vancomycin). The time of antibiotic addition is indicated by an arrow. The antibiotic concentrations affecting the induction of PliaI according to the β3-galactosidase assay are indicated by white symbols. The corresponding concentrations are: bacitracin ([…]), nisin (50, 70 and 100 μg/ml), ramoplanin (20, 50 and 100 μg/mL) and vancomycin (5, 10, 50 and 100 μg/mL).
This finding correlates well with the bactericidal effects of these antibiotics as inferred from the dramatic decrease of optical density: there is little effect of bacitracin and vancomycin on cell growth during the first 30-60 min after addition even at high concentrations (FIG. 7b).
The cultures were incubated with aeration at 37° C.

The test system of data set [3] is liaI expression (pMUTIN-derived lacZ fusion, strain BFS2470). As to the kind of experiment: microbe, parasite or virus in culture. Conditions: for fold induction of liaI expression: text to FIG. 4: bacitracin 100 μg/mL, tunicamycin 50 μg/mL, vancomycin 2 μg/mL, 30 minutes, nisin, ramoplanin results not shown. As to the method:
Disc-diffusion assays were used to determine the spectrum of stimuli that induce the expression of liaIH. The B. subtilis strains BFS2469 and BFS2470 (Table 2), harboring pMUTIN-insertions in liaH and liaI respectively, were plated on a medium containing the indicator dye X-gal and overlaid with filter disks impregnated with various antibiotics that interfere with cell wall biosynthesis. Specifically, cultures of B. subtilis strain BFS2469 (liaH::pMUTIN) and BFS2470 (liaI::pMUTIN) were grown in LB medium to midlog phase, 2 mL for the un-induced control sample were harvested, and the remaining culture was induced with the three antibiotics for 30 minutes, before the cells of the induced sample were harvested. All samples were taken in duplicate from two independent cultures and the standard deviation is indicated by error bars.
Measurement of induction by β-galactosidase assays: Cells were inoculated from fresh overnight LB-plates and grown in LB-medium at 37° C. with aeration until they reached an O.D.600=0.45. 2 mL of cultures were harvested (un-induced control) and the cell pellets were shock frozen and kept at −70° C. The cultures were induced by addition of antibiotics to a final concentration of: bacitracin (100 μg/mL), tunicamycin (50 μg/mL) or vancomycin (2 μg/mL) and incubated for additional 30 min at 37° C. 2 mL of the cultures were harvested as described above (induced sample). The pellets were re-suspended in 1 mL of working buffer and assayed for β-galactosidase activity as described with normalization to cell density (Miller, 1972, the entire teaching of which is incorporated herein by reference).
For quantitative measurements of β-galactosidase activity, cells were inoculated from fresh overnight LB-plates and grown in LB medium at 37 YC with aeration until they reached an OD600 of 0.45. 2 ml of the culture was harvested (un-induced control) and the cell pellets were frozen and kept at −80 YC. The cultures were induced by addition of the compound to be tested to the final concentration as described in the individual figure legends and incubated for an additional 30 min at 37 YC. 2 ml of the cultures were harvested as described above. The pellets were re-suspended in 1 ml of working buffer (60 mM Na2HPO4, 40 mMNaH2PO4, 10 mM KCl, 1 mM MgSO4, 4 mM DTT) and assayed for β-galactosidase activity as described with normalization to cell density Kobayashi, K., et al., 2001, J Bacteriol 183:7365-7370). […] A sample was taken after 30 min for β-galactosidase assay and the turbidity of the remaining culture was measured for at least 5 hours to monitor the concentration-dependent effects of the antibiotics on cell growth.

For data set [4], the system named is liaI expression in B. subtilis. Conditions: 10 min after vancomycin addition; cited from earlier work.

Consider `CC1(C)S[C@@H]2[C@H](NC(=O)[C@H](N)c3ccccc3)C(=O)N2[C@H]1C(=O)O` [Ampicillin], for which the disk-diffusion assay result in data set [1] is listed as “−”.
As for `CCCCCCCCCCCC[N+](C)(C)Cc1ccccc1.[Br-]` [BDMDDA-Br, Benzyldimethyldodecylammonium bromide], the disk-diffusion assay entry in data set [1] is “−”.
As for `CCCCCCCCCCCCCCCC[N+](C)(C)Cc1ccccc1.[Cl-]` [BDMHDA-Cl, Benzyldimethylhexadecylammonium chloride], in data set [1], the disk-diffusion assay entry is listed as “+” and the “induction of liaI / liaH expression, in words” value was “moderately induced”.
For `N#CC(C#N)=NNc1cccc(Cl)c1` [CCCP], in that order: “−” and “neither elevated liaIH expression”.
With `O=C(N[C@H](CO)[C@H](O)c1ccc([N+](=O)[O-])cc1)C(Cl)Cl` [Chloramphenicol], the disk-diffusion assay entry in data set [1] was “−”.
Consider `N[C@@H]1CONC1=O` [D-cycloserin], for which, in data set [1], the disk-diffusion assay result is on record as “−”.
`O=[N+]([O-])c1ccc(O)c([N+](=O)[O-])c1` [DNP]: in data set [1], the disk-diffusion assay entry is “−” and the “induction of liaI / liaH expression, in words” value is listed as “neither elevated liaIH expression”.
As for `CCCCCCCCCCCCCCCC[N+](C)(C)C.[Br-]` [HDTMA-Br, Hexadecyltrimethylammonium], the disk-diffusion assay result in data set [1] is on record as “−”.
Still for that read-out and setting: for `CC1(C)S[C@@H]2[C@H](NC(=O)Cc3ccccc3)C(=O)N2[C@H]1C(=O)O` [Penicillin G] the value was “−”.
The same measure, in the same setting: for `CCCCCCCCCCCCOS(=O)(=O)[O-].[Na+]` [SDS, sodium dodecylsulfate] the value was “−”.
Regarding `CN[C@H](CC(C)C)C(=O)N[C@H]1C(=O)N[C@@H](CC(N)=O)C(=O)N[C@H]2C(=O)N[C@H]3C(=O)N[C@H](C(=O)N[C@H](C(=O)O)c4cc(O)cc(O)c4-c4cc3ccc4O)[C@H](O)c3ccc(c(Cl)c3)Oc3cc2cc(c3O[C@@H]2O[C@H](CO)[C@@H](O)[C@H](O)[C@H]2O[C@H]2C[C@](C)(N)[C@H](O)[C@H](C)O2)Oc2ccc(cc2Cl)[C@H]1O` [Vancomycin], in data set [1], the disk-diffusion assay entry was “+” and the “induction of liaI / liaH expression, in words” value is listed as “induced”. In data set [2], the “lacZ-expression at higher concentration” value is “remained elevated”, the “effect on cell growth / optical density” value is on record as “little effect” and the “antibiotic concentration at maximum induction of liaI” value was about 1 µg/mL. In addition, the fold induction at 2 µg/mL in data set [3] (Bacillus subtilis, 0.5 h, read-out: fold induction of liaI expression) is about 65. The “increase in liaI expression level” value in data set [4] is given as “more than 100 fold”.
Take `NC[C@H]1O[C@H](O[C@H]2[C@H](O)[C@@H](O[C@H]3O[C@H](CO)[C@@H](O)[C@H](N)[C@H]3O)[C@H](N)C[C@@H]2N)[C@H](O)[C@@H](O)[C@@H]1O` [kanamycin]: the disk-diffusion assay entry in data set [1] was “−”.
On the same count and under the same terms, for `CO[C@H]1/C=C/O[C@@]2(C)Oc3c(C)c(O)c4c(O)c(c(/C=N/N5CCN(C)CC5)c(O)c4c3C2=O)NC(=O)/C(C)=C\C=C\[C@H](C)[C@H](O)[C@@H](C)[C@@H](O)[C@@H](C)[C@H](OC(C)=O)[C@@H]1C` [rifampicin] the value was “−”; for `CN[C@@H]1[C@H](O)[C@H](NC)[C@H]2O[C@@]3(O)C(=O)C[C@@H](C)O[C@H]3O[C@@H]2[C@H]1O` [spectinomycin], “−”; for `[H]/N=C(/N)N[C@H]1[C@H](O)[C@@H](O)[C@H](O[C@@H]2O[C@@H](C)[C@](O)(C=O)[C@H]2O[C@@H]2O[C@@H](CO)[C@H](O)[C@@H](O)[C@@H]2NC)[C@@H](N/C(N)=N\[H])[C@@H]1O` [streptomycin], “−”.
On the same count and under the same terms, in the case of `CN(C)[C@@H]1C(O)=C(C(N)=O)C(=O)[C@@]2(O)C(O)=C3C(=O)c4c(O)cccc4[C@@](C)(O)[C@H]3C[C@@H]12` [tetracycline] it was “−”.
For Lysozyme, in data set [1], the disk-diffusion assay result was “−” and the “induction of liaI / liaH expression, in words” value was “ineffective as an inducer”.
As to Moenomycin, the disk-diffusion assay result in data set [1] is given as “−”.
As to Polymyxin B, in data set [1], the disk-diffusion assay entry is “−”.
With Ramoplanin, in data set [1], the disk-diffusion assay result is “+” and the “induction of liaI / liaH expression, in words” value is reported as “induced”. For the same compound, in data set [2], the “lacZ-expression at higher concentration” value is “strong decrease down to un-induced levels”, the “effect on cell growth / optical density” value is listed as “rapid cell lysis” and the “antibiotic concentration at maximum induction of liaI” value is on record as “about 10 μg/ml”. Moreover, the “fold induction of liaI expression” value in data set [3] is 420 fold.
Consider Triton X100, for which the disk-diffusion assay entry in data set [1] was “−”.
As for Tunicamycin, the disk-diffusion assay result in data set [1] is “+”. The “fold induction of liaI expression” value in data set [3] is “three-fold”.
